This note sets out measurements from ChEMBL document CHEMBL3046040, “Synthesis, cytostatic and anti-viral activity evaluation of the novel acyclic nucleoside analogues containing a sterically constrained (Z)-4-amino-2-butenyl moiety” (Med Chem Res, 2011).

What is called IC50 is the concentration that gives 50% inhibition. High values mean weaker potency, low ones greater potency. As usually defined, the EC50 is the concentration at which the effect is half-maximal.

Calls of active or inactive are those of the source. No cut-off for these calls is given here.

In one experiment the test system is WI-38. The experiment can be described thus: Antiproliferative activity against Homo sapiens (human) WI38 cells by MTT assay. In kind it is cell-based.
The subject of another experiment is SW-620. The experiment can be described thus: Antiproliferative activity against Homo sapiens (human) SW620 cells by MTT assay. In kind it is functional, cell-based. For orientation: Tetrazolium dyes change colour on reduction, which living cells bring about.
Another experiment concerns MIA PaCa-2. The experiment can be described thus: Antiproliferative activity against Homo sapiens (human) MIAPaCa2 cells by MTT assay. In kind it is functional, cell-based.
The test system of a further experiment is MCF7. The experiment can be described thus: Antiproliferative activity against Homo sapiens (human) MCF7 cells by MTT assay. In kind it is functional, cell-based.
The test system of another experiment is HepG2. The experiment can be described thus: Antiproliferative activity against Homo sapiens (human) HepG2 cells by MTT assay. In kind it is functional, cell-based.
A further experiment deals with HeLa. The experiment can be described thus: Antiproliferative activity against Homo sapiens (human) HeLa cells by MTT assay. In kind it is functional, cell-based.
The subject of the next experiment is CCRF-CEM. Kind of experiment: Cytostatic activity against Homo sapiens (human) CEM cells after 72 hr by Coulter counting analysis. In kind it is functional, cell-based.
For another experiment, the system named is MOLT-4. Kind of experiment: Cytostatic activity against Homo sapiens (human) Molt4/C8 cells after 72 hr by Coulter counting analysis. In kind it is functional, cell-based. Particulars: MOLT-4, 72 h.
The subject of a further experiment is L1210. The experiment can be described thus: Cytostatic activity against Mus musculus (mouse) L1210 cells after 48 hr by Coulter counting analysis. In kind it is functional, cell-based.
For a further experiment, the system named is Influenza A virus H3N2. The experiment can be described thus: Antiviral activity against Influenza A virus H3N2 infected MDCK cells assessed as inhibition of virus-induced cytopathic effect. In kind it is functional, organism-based. On the technique in general: Cytopathic effects are the visible damage that an infection or toxin causes in cultured cells.

A further experiment concerns Influenza B virus. The experiment can be described thus: Antiviral activity against Influenza B virus infected MDCK cells assessed as inhibition of virus-induced cytopathic effect. In kind it is functional, organism-based.
Another experiment relates to Influenza A virus. Kind of experiment: Antiviral activity against Unidentified Influenza A virus ([…]) infected MDCK cells assessed as inhibition of virus-induced cytopathic effect. In kind it is functional, organism-based. Particulars: Influenza A virus (H1N1).
In experiment [1] the test system is Respiratory syncytial virus. The experiment can be described thus: Antiviral activity against Respiratory syncytial virus infected HeLa cells assessed as inhibition of virus-induced cytopathic effect. In kind it is functional, organism-based.
For experiment [2], the system named is Coxsackievirus B4. Kind of experiment: Antiviral activity against Human coxsackievirus B4 infected HeLa cells assessed as inhibition of virus-induced cytopathic effect. In kind it is functional, organism-based.
Experiment [3] deals with Vesicular stomatitis virus. Kind of experiment: Antiviral activity against Vesicular stomatitis virus infected HeLa cells assessed as inhibition of virus-induced cytopathic effect. In kind it is functional, organism-based.
The test system of a further experiment is Punta Toro virus. Kind of experiment: Antiviral activity against Punta Toro virus infected Vero cells assessed as inhibition of virus-induced cytopathic effect. In kind it is functional, organism-based.
Experiment [4] deals with Coxsackievirus B4. The experiment can be described thus: Antiviral activity against Human coxsackievirus B4 infected Vero cells assessed as inhibition of virus-induced cytopathic effect. In kind it is functional, organism-based.
The subject of another experiment is Sindbis virus. Kind of experiment: Antiviral activity against Sindbis virus infected Vero cells assessed as inhibition of virus-induced cytopathic effect. In kind it is functional, organism-based.
For another experiment, the system named is Reovirus sp. Kind of experiment: Antiviral activity against Mammalian orthoreovirus 1 infected Vero cells assessed as inhibition of virus-induced cytopathic effect. In kind it is functional, organism-based.
The next experiment relates to Human respirovirus 3. The experiment can be described thus: Antiviral activity against Human parainfluenza virus 3 infected Vero cells assessed as inhibition of virus-induced cytopathic effect. In kind it is functional, organism-based.
In a further experiment the test system is Human alphaherpesvirus 2. Kind of experiment: Antiviral activity against Human herpesvirus 2 strain G infected HEL cells assessed as inhibition of virus-induced cytopathic effect. In kind it is functional, organism-based.
Another experiment deals with Human alphaherpesvirus 1. The experiment can be described thus: Antiviral activity against Human herpesvirus 1 strain KOS infected in HEL cells assessed as inhibition of virus-induced cytopathic effect. In kind it is functional, organism-based.
The test system of experiment [5] is Human immunodeficiency virus 1. Kind of experiment: Antiviral activity against Human immunodeficiency virus 1 IIIB infected CEM cells assessed as inhibition of virus-induced giant cell formation after 4 days by microscopic analysis. Particulars: CCRF-CEM, 96 h. In kind it is functional, organism-based.
Experiment [6] deals with Human immunodeficiency virus 2. Kind of experiment: Antiviral activity against Human immunodeficiency virus type 2 (ISOLATE ROD) infected CEM cells assessed as inhibition of virus-induced giant cell formation after 4 days by microscopic analysis. In kind it is functional, organism-based. Particulars: Human immunodeficiency virus 2, ISOLATE ROD, CCRF-CEM, 96 h.

On to `NC/C=C\Cn1cnc2c(N)ncnc21`, for which the IC50 in the experiment with WI-38 was 69.1 µM; in the experiment with SW-620 (Homo sapiens, SW-620) it was 77.1 µM; with MIA PaCa-2 it was above 100 µM; in the experiment on MCF7, above 100 µM; in the experiment on HepG2, above 100 µM; with HeLa, above 100 µM. Besides, the IC50 with CCRF-CEM turned out to be 340 µM; in the experiment with MOLT-4, 248 µM; in the experiment with L1210 (Mus musculus, L1210, 48 h), 276 µM. Besides, the outcome (with Influenza A virus H3N2; in the experiment on Influenza B virus; in the experiment on Influenza A virus; in experiment [1]; with Coxsackievirus B4 [2]; in [3]) was inactive. The outcome in the experiment with Punta Toro virus, with Coxsackievirus B4 [4], in the experiment on Sindbis virus, with Reovirus sp., in the experiment with Human respirovirus 3 and with Human alphaherpesvirus 2 was inactive. The outcome in the experiment on Human alphaherpesvirus 1 was inactive.

On to `NC/C=C\Cn1cnc2c(Cl)nc(N)nc21`, for which the EC50 in [5] and in experiment [6] was at least 100 µM each time. The IC50 was above 100 µM with WI-38; above 100 µM in the experiment on SW-620 (Homo sapiens, SW-620); above 100 µM in the experiment on MIA PaCa-2; above 100 µM in the experiment on MCF7; above 100 µM with HepG2; 54 µM in the experiment on HeLa. For the same compound, the IC50 in the experiment with CCRF-CEM is above 500 µM; with MOLT-4, above 500 µM; with L1210 (Mus musculus, L1210, 48 h), above 500 µM. The Activity entry with HeLa was “Dose-dependent effect”. Also, the result (with Influenza A virus H3N2; in the experiment with Influenza B virus; in the experiment with Influenza A virus; in [1]; with Coxsackievirus B4 [2]; in [3]) was inactive. Besides, the outcome in the experiment with Punta Toro virus, in the experiment on Coxsackievirus B4 [4], in the experiment on Sindbis virus, in the experiment with Reovirus sp., with Human respirovirus 3 and in the experiment on Human alphaherpesvirus 2 was inactive. Also, the outcome in the experiment on Human alphaherpesvirus 1 was inactive.

As for `NCCCCn1cnc2c(N)nc(N)nc21`, the result (in the experiment on Influenza A virus H3N2; in the experiment on Influenza B virus; with Influenza A virus; in [1]; with Coxsackievirus B4 [2]; in experiment [3]) was inactive. Besides, the result in the experiment with Punta Toro virus, in the experiment with Coxsackievirus B4 [4], with Sindbis virus, with Reovirus sp., with Human respirovirus 3 and with Human alphaherpesvirus 2 was inactive. The outcome in the experiment with Human alphaherpesvirus 1 was inactive.

`NC/C=C\Cn1cnc2c(=O)[nH]cnc21`: the EC50 in experiment [5] and in experiment [6] was at least 100 µM each time. The half-maximal inhibitory concentration (IC50) with WI-38 was above 100 µM; with SW-620 (Homo sapiens, SW-620), above 100 µM; in the experiment on MIA PaCa-2 it was above 100 µM; in the experiment with MCF7 it was above 100 µM; in the experiment with HepG2, above 100 µM; in the experiment with HeLa, 69.1 µM. Also, the IC50 in the experiment on CCRF-CEM is above 500 µM; with MOLT-4 it was above 500 µM; in the experiment with L1210 (Mus musculus, L1210, 48 h), 114 µM. The outcome (in the experiment with Influenza A virus H3N2; with Influenza B virus; with Influenza A virus; in experiment [1]; in the experiment with Coxsackievirus B4 [2]; in experiment [3]) was inactive. For the same compound, the result with Punta Toro virus, in the experiment with Coxsackievirus B4 [4], in the experiment with Sindbis virus, in the experiment with Reovirus sp., in the experiment with Human respirovirus 3 and in the experiment on Human alphaherpesvirus 2 was inactive. In addition, the result in the experiment on Human alphaherpesvirus 1 was inactive.

As for `NC/C=C\Cn1cnc2c(=O)[nH]c(N)nc21`, the EC50 in experiment [5] and in experiment [6] was 10 µM throughout. The outcome (with Influenza A virus H3N2; with Influenza B virus; with Influenza A virus; in experiment [1]; in the experiment on Coxsackievirus B4 [2]; in experiment [3]) was inactive. Further, the outcome with Punta Toro virus, with Coxsackievirus B4 [4], in the experiment on Sindbis virus, in the experiment with Reovirus sp., in the experiment with Human respirovirus 3 and with Human alphaherpesvirus 2 was inactive. The outcome in the experiment on Human alphaherpesvirus 1 was inactive.

For the compound `NCCCCn1cnc2c(-n3cccc3)ncnc21`, the IC50 in the experiment on WI-38 was above 100 µM; with SW-620 (Homo sapiens, SW-620), 40.5 µM; with MIA PaCa-2, above 100 µM; with MCF7 it was above 100 µM; in the experiment on HepG2, 74.2 µM; with HeLa it was 10.9 µM. Further, the IC50 is 115 µM with CCRF-CEM; 140 µM in the experiment on MOLT-4; 91 µM in the experiment on L1210 (Mus musculus, L1210, 48 h). In addition, in the experiment on HeLa, the Activity entry is “Dose-dependent effect”. The result (with Influenza A virus H3N2; in the experiment with Influenza B virus; in the experiment on Influenza A virus; in experiment [1]; in the experiment on Coxsackievirus B4 [2]; in [3]) was inactive. Also, the result in the experiment on Punta Toro virus, with Coxsackievirus B4 [4], in the experiment with Sindbis virus, in the experiment with Reovirus sp., in the experiment with Human respirovirus 3 and with Human alphaherpesvirus 2 was inactive. The result in the experiment on Human alphaherpesvirus 1 was inactive.

On to `NC/C=C\Cn1cnc2c(N)nc(N)nc21` [listing 1 of 3 here], for which the result (in the experiment with Influenza A virus H3N2; in the experiment with Influenza B virus; in the experiment with Influenza A virus; in experiment [1]; in the experiment with Coxsackievirus B4 [2]; in experiment [3]) was inactive. Besides, the outcome in the experiment on Punta Toro virus, in the experiment with Coxsackievirus B4 [4], with Sindbis virus, in the experiment on Reovirus sp., in the experiment with Human respirovirus 3 and in the experiment with Human alphaherpesvirus 2 was inactive. The outcome in the experiment with Human alphaherpesvirus 1 was inactive.

With `NC/C=C\Cn1cnc2c(N)nc(N)nc21` [listing 2 of 3 here], the IC50 is above 100 µM with WI-38; above 100 µM with SW-620 (Homo sapiens, SW-620); above 100 µM in the experiment with MIA PaCa-2; above 100 µM in the experiment on MCF7; above 100 µM in the experiment with HepG2; above 100 µM in the experiment on HeLa. The IC50 was above 500 µM in the experiment on CCRF-CEM; above 500 µM with MOLT-4; above 500 µM in the experiment with L1210 (Mus musculus, L1210, 48 h).

Regarding `NC/C=C\Cn1cnc2c(N)nc(N)nc21` [listing 3 of 3 here], the IC50 in the experiment on SW-620 (sw-620) was found to be 98.8 µM; in the experiment with L1210 (l1210), 350 µM.

For the compound `NC/C=C\Cn1ccc(=O)[nH]c1=O`, the result (in the experiment on Influenza A virus H3N2; with Influenza B virus; in the experiment on Influenza A virus; in experiment [1]; with Coxsackievirus B4 [2]; in experiment [3]) was inactive. The outcome in the experiment with Punta Toro virus, in the experiment on Coxsackievirus B4 [4], in the experiment with Sindbis virus, in the experiment on Reovirus sp., in the experiment on Human respirovirus 3 and in the experiment with Human alphaherpesvirus 2 was inactive. Besides, in the experiment with Human alphaherpesvirus 1, the result was inactive.
